Reference: ChEMBL document CHEMBL5316345, “Discovery of the Potent and Selective MC4R Antagonist PF-07258669 for the Potential Treatment of Appetite Loss” (J Med Chem, 2023)
Activity calls are given as the source filed them. The calls are words filed in the database; no cut-off is given here.

What was measured:
[1] = target: Voltage-gated inwardly rectifying potassium channel KCNH2 (Homo sapiens, UniProt Q12809); test: Inhibition of hERG expressed in CHO cells stably at -80 mV holding potential by automated patch clamp method; type: toxicity, cell-based
Voltage-gated inwardly rectifying potassium channel KCNH2, sequence (Q12809 whole entry): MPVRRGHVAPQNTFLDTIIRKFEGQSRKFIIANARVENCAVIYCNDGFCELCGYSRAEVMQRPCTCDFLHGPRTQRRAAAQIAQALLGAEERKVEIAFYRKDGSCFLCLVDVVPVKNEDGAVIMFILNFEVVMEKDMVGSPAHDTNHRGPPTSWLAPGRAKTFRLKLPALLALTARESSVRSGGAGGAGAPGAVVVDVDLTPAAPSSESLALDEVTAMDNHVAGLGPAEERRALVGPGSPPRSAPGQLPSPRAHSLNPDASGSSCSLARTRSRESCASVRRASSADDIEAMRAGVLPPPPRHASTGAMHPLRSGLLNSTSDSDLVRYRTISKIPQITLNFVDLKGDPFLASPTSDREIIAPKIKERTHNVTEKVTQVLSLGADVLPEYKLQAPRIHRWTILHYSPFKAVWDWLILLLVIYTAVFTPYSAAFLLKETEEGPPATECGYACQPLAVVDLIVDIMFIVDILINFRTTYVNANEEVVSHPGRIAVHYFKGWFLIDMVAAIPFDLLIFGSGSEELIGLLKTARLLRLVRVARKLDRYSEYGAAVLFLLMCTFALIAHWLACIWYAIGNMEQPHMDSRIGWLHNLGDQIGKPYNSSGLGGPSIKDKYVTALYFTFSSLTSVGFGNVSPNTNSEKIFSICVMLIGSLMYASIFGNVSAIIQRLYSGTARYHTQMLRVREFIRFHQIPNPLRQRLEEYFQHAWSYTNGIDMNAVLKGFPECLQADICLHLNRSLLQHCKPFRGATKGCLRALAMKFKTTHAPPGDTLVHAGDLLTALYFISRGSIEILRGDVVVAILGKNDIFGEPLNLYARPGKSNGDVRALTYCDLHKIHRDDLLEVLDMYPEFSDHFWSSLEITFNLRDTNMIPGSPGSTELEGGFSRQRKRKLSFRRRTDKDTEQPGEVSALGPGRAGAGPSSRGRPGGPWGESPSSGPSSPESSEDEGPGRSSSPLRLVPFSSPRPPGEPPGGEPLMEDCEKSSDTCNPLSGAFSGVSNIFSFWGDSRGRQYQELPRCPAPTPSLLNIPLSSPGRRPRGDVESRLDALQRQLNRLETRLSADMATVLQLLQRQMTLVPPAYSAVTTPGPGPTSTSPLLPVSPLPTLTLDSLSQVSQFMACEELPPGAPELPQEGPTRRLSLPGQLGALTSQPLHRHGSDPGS

[2] = Octanol-water distribution coefficient, logD of the compound at pH 7.4 by RP-HPLC analysis; type: physicochemical
[3] = Volume of distribution at steady state in Beagle dog at 1 mg/kg, iv measured at 0.033 to 24 hrs by LC-MS/MS analysis; type: ADME, organism-based, Canis lupus familiaris; conditions: in vivo, time 0.033-24 hrs, read-out: Vdss
Melanocortin receptor 4 = Melanocortin receptor 4 (Rattus norvegicus, UniProt P70596); test: Displacement of [125I]-NDP-alpha-MSH from rat MC4R expressed in CHO cells by microbeta counter analysis; type: cell-based
Melanocortin receptor 4, sequence (P70596 whole entry): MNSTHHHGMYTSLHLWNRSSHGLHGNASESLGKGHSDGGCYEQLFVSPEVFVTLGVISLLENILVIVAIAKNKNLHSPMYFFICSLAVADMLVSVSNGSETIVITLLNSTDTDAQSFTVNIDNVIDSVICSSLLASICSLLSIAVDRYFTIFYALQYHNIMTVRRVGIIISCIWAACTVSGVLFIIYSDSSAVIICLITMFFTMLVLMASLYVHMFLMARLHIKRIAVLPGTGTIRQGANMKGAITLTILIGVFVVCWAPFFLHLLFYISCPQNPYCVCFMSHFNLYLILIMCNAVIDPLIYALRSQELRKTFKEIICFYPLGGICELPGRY

[4] = Passive apparent permeability in MDCKII-LE cells; type: ADME, cell-based, Canis lupus familiaris; conditions: dog, MDCK; read-out: permeability (converted)
Melanocortin receptor 5 = Melanocortin receptor 5 (Homo sapiens, UniProt P33032); test: Displacement of [125I]-NDP-alpha-MSH from human MC5R expressed in CHO cells measured for 2 hrs by microbeta counter analysis; type: cell-based
[5] = Half life in Wistar Han rat at 1 mg/kg, iv measured at 0.033 to 24 hrs by LC-MS/MS analysis; type: ADME, organism-based; conditions: in vivo, time 0.033-24 hrs
[6] = target: Melanocyte-stimulating hormone receptor (Homo sapiens, UniProt Q01726); test: Displacement of [125I]-NDP-alpha-MSH from human MC1R expressed in CHO cells measured for 2 hrs by microbeta counter analysis; type: cell-based
Melanocyte-stimulating hormone receptor, sequence (Q01726 whole entry): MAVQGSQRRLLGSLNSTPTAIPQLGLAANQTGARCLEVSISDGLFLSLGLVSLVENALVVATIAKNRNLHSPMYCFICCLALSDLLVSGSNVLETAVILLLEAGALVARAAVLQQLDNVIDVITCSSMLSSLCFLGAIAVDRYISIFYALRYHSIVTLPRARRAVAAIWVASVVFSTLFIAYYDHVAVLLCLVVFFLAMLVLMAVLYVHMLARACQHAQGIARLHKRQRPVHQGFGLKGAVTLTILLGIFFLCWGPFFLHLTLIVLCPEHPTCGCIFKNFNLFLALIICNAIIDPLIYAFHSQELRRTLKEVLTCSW

[7] = Cmax in Wistar Han rat at 5 mg/kg, po measured at 0.083 to 24 hrs by LC-MS/MS analysis; type: ADME, organism-based; parameters: dose 5 mg/kg, time upper 24 hrs, time lower 0.083 hrs, route po; conditions: in vivo
[8] = target: Sodium channel protein type 5 subunit alpha (Homo sapiens, UniProt Q14524); test: Inhibition of recombinant human Nav1.5 expressed in CHO cells by whole cell voltage clamp electrophysiology recording; type: cell-based
Sodium channel protein type 5 subunit alpha, sequence (Q14524 whole entry): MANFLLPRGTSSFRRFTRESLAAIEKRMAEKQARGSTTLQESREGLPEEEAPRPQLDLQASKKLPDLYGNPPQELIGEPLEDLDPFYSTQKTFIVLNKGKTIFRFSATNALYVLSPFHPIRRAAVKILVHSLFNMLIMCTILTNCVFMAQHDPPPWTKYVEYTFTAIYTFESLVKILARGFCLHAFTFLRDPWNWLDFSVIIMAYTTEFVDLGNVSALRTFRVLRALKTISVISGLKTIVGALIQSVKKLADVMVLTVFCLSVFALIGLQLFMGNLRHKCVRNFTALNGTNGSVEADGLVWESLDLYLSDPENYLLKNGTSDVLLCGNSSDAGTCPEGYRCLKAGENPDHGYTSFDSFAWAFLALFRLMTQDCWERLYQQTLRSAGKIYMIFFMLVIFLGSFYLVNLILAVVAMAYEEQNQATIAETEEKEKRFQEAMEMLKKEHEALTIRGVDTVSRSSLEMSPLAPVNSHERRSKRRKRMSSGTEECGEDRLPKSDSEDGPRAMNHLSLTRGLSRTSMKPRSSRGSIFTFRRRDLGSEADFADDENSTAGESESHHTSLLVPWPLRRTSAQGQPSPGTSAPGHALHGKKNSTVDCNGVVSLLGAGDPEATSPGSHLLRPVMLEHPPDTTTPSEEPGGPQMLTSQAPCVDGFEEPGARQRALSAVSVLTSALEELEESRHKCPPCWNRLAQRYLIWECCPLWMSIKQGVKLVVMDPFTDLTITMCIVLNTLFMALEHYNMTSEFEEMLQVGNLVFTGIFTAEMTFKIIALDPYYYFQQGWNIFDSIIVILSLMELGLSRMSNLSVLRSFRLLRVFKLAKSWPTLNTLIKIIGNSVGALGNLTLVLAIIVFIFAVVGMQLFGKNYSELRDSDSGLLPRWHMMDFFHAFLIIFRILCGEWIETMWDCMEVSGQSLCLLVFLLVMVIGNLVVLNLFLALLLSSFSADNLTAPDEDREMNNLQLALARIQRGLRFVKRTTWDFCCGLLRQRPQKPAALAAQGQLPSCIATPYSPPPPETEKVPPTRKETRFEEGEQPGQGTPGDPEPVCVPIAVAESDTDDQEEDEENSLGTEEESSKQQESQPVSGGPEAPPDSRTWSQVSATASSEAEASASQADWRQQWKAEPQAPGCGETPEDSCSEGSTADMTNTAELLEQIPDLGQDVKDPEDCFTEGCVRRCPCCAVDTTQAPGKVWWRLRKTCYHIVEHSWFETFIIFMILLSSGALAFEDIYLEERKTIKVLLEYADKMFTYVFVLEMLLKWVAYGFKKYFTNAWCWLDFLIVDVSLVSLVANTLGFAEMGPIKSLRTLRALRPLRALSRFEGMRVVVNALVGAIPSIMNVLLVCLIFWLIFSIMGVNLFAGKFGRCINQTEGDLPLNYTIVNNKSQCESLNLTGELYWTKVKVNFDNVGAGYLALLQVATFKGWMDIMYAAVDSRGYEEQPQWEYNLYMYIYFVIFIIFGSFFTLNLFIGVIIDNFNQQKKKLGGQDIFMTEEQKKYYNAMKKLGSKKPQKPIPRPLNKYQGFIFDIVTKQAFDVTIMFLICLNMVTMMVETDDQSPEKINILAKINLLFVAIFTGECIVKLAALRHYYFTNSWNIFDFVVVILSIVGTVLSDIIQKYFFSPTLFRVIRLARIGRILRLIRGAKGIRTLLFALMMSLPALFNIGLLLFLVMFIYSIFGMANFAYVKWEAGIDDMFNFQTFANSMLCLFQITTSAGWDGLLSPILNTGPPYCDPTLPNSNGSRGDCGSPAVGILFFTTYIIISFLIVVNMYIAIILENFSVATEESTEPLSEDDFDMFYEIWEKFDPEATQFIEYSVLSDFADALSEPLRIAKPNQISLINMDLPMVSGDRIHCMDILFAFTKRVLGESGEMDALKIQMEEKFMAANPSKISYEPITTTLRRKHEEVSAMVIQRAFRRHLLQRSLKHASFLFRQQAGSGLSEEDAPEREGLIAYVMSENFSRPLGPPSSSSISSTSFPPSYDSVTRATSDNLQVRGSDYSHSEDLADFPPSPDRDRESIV

Melanocortin receptor 3 = Melanocortin receptor 3 (Homo sapiens, UniProt P41968); test: Displacement of [125I]-NDP-alpha-MSH from human MC3R expressed in CHO cells measured for 2 hrs by microbeta counter analysis; type: cell-based
Melanocortin receptor 3, sequence (P41968 whole entry): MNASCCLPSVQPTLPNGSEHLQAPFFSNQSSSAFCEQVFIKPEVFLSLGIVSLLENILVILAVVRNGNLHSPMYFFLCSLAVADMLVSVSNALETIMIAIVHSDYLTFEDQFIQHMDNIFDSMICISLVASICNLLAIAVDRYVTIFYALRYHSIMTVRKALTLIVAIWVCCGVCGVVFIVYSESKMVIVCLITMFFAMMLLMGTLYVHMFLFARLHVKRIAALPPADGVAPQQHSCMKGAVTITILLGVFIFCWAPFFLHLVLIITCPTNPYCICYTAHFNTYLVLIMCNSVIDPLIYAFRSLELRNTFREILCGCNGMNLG

Mus musculus [9] = test: Effect on body weight in anorexia/cachexia mouse model assessed as cumulative body weight gain at 3 mg/kg, po administered twice a day for 20 days and measured at 1 to 21 days; type: functional; conditions: time 1-21 day
Mus musculus [10] = test: Effect on body weight in anorexia/cachexia mouse model assessed as increase in food intake administered twice a day for 20 days and measured at 1 to 21 days; type: functional, organism-based; conditions: dose 0.3-10 mg/kg, time 1-21 day
[11] = target: Dual specificity calcium/calmodulin-dependent 3',5'-cyclic nucleotide phosphodiesterase 1B (Homo sapiens, UniProt Q01064); test: Inhibition of human PDE1B1
Dual specificity calcium/calmodulin-dependent 3',5'-cyclic nucleotide phosphodiesterase 1B, sequence (Q01064 whole entry): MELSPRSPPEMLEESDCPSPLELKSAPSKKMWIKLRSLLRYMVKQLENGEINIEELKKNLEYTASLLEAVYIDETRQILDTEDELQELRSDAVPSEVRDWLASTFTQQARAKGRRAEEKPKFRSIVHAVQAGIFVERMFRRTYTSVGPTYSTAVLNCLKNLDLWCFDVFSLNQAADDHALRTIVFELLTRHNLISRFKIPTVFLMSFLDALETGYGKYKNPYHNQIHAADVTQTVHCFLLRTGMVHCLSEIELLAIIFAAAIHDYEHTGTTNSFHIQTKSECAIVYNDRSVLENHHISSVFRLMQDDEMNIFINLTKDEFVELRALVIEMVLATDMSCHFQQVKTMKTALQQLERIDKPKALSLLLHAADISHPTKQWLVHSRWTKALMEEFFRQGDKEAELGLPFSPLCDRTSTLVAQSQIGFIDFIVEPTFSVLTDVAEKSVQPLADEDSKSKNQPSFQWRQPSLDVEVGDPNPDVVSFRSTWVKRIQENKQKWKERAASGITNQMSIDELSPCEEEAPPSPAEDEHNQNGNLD

[12] = AUClast in Wistar Han rat at 5 mg/kg, po measured at 0.083 to 24 hrs by LC-MS/MS analysis; type: ADME, organism-based; parameters: time upper 24 hrs, dose 5 mg/kg, time lower 0.083 hrs, route po; conditions: in vivo
[13] = Oral bioavailability in Wistar Han rat at 5 mg/kg measured at 0.083 to 24 hrs by LC-MS/MS analysis; type: ADME, organism-based; conditions: in vivo, time 0.083-24 hrs
[14] = target: Adrenocorticotropic hormone receptor (Homo sapiens) (UniProt Q01718); test: Agonist activity at human MC2R expressed in CHO cells assessed as increase in alpha-MSH induced cAMP level measured for 60 mins; type: functional, cell-based
Adrenocorticotropic hormone receptor (Homo sapiens), sequence (Q01718 whole entry): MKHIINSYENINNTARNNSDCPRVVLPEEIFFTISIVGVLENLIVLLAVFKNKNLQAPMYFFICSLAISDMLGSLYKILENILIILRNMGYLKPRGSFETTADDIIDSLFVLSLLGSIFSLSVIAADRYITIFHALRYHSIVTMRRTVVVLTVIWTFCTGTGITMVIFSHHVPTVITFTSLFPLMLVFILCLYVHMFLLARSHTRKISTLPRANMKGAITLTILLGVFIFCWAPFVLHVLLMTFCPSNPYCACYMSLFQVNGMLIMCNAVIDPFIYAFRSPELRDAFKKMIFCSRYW

[15] = Cmax in Beagle dog at 1 mg/kg, po measured at 0.25 to 24 hrs by LC-MS/MS analysis; type: ADME, organism-based, Canis lupus familiaris; parameters: dose 1 mg/kg, time 0.25-24 hrs, route po; conditions: in vivo
Mus musculus [16] = test: Effect on body weight in anorexia/cachexia mouse model assessed as reduction in cumulative food intake at 1 mg/kg, po administered twice a day for 20 days and measured at 1 to 21 days; type: functional; parameters: scale not given: the % may be the effect or the level left; conditions: time 1-21 day

logD [2]: 2.6 | Vd [3]: 1.3 L/kg | Ki (Melanocortin receptor 4): 0.52 nM | Papp [4]: 0.467 ×10⁻⁶ cm/s | Ki (Melanocortin receptor 5): 840 nM | half-life [5]: 1 h | Ki [6]: > 1600 nM | Cmax [7]: 600 ng/mL | Ki (Melanocortin receptor 3): 340 nM | IC50 [11]: > 50000 nM | AUC(0-t) [12]: 1110 ng·h/mL | bioavailability [13]: 28% | Activity [14]: inactive | Cmax [15]: 1470 ng/mL
SMILES: COc1cc([C@@H](C)C(=O)N2CC[C@@]3(COc4cc(-c5ncccn5)c(C)nc4N3)C2)c(F)cn1
IC50 [1]: 27000 nM | IC50 [8]: > 100000 nM | Activity (Mus musculus [9]): 9% | Activity (Mus musculus [10]): Dose-Dependent Effect | Activity (Mus musculus [16]): 26%
